Test results from ChEMBL document CHEMBL1201862, “PubChem BioAssay data set” (2004).
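Compound exposure: 48 hours, 5 concentrations, 96-well plates. GI50 = concentration required for 50% inhibition of growth.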 Activity calls are given as the source filed them. Rule as the data show it: active = GI50 up to about 1.1 µM and inactive = higher.

How the values were obtained:
Test in all cases: NCI tumour cell line growth inhibition, 48 h
SNB-78 = test system: SNB-78
KM-20L2 = test system: KM-20L2
LXFL 529 = test system: LXFL 529
XF498 = test system: XF498
MDA-N = test system: MDA-N
DMS-114 = test system: DMS-114
DMS-273 = test system: DMS-273
HOP-18 = test system: HOP-18

Q: Which GI50 (SNB-78) does the source give for `Nc1cc(C(=O)NC2C3CC4CC(C3)CC2C4)nc(S)n1` (stereo not given) here?
A: > 100 µM (inactive)

Q: What about the GI50 (KM-20L2) of the same compound?
A: > 100 µM (inactive)

Q: And the GI50 (LXFL 529)?
A: > 100 µM (inactive)

Q: And the GI50 (XF498)?
A: > 100 µM (inactive)

Q: With `O=[N+]([O-])c1cccc([N+](=O)[O-])c1S(=O)(=O)c1ccccc1` as the compound, how does the GI50 (MDA-N) read?
A: 5.51 µM (inactive)

Q: What does the source list for `COc1ccc(OC(C)C(=O)O)c2c1CCCC2=O` (stereo not given)?
A: GI50 (DMS-114): > 100 µM (inactive); GI50 (SNB-78): > 100 µM (inactive); GI50 (KM-20L2): < 0.01 µM (active); GI50 (DMS-273): > 100 µM (inactive); GI50 (LXFL 529): > 100 µM (inactive); GI50 (XF498): > 100 µM (inactive)

Q: `CC(C#N)(NO)C(C)(C#N)NO` (stereo not given) was tested. Which GI50 (MDA-N) did it give?
A: > 100 µM (inactive)

Q: What does the source list for `COc1ccc(-c2c(C3=NCCCN3)nnn2-c2ccc([N+](=O)[O-])cc2)cc1`?
A: GI50 (DMS-114): > 100 µM (inactive); GI50 (HOP-18): > 100 µM (inactive); GI50 (SNB-78): > 100 µM (inactive); GI50 (KM-20L2): > 100 µM (inactive); GI50 (DMS-273): > 100 µM (inactive); GI50 (LXFL 529): > 100 µM (inactive)

Q: For `O=c1[nH]nc(Cc2ccc(Cl)cc2)n1O`, which GI50 (MDA-N) is on record?
A: > 100 µM (inactive)

Q: For `Cc1ccc(S(=O)(=O)Nn2c(C)cc3ccc(S(=O)(=O)Nc4ccccc4[N+](=O)[O-])cc3c2=O)cc1`, which GI50 (MDA-N) is on record?
A: 29.6 µM (inactive)

Q: How did the GI50 (MDA-N) turn out when `Cc1sc(C)c2c1C(=O)CC2N` (stereo not given) was run?
A: 21.1 µM (inactive)

Q: With `COC(=O)c1cc(C(=CCC[C@H]2CC[C@@]3(C)C(CCC4C3CC[C@@]3(C)C4CC[C@@H]3C(C)CCCC(C)C)C2)c2cc(Cl)c(O)c(C(=O)OC)c2)cc(Cl)c1O` (stereo not given in full) as the compound, how does the GI50 (MDA-N) read?
A: > 10 µM (inactive)

Q: With `CN(CC(=O)O)Cc1c[nH]c2ccccc12` as the compound, how does the GI50 (MDA-N) read?
A: > 100 µM (inactive)

Q: `Nc1ccc2nc3ccc(=O)cc-3n(-c3ccccc3)c2c1` was tested. Which GI50 (MDA-N) did it give?
A: > 100 µM (inactive)

Q: `O=C(c1ccccc1)c1nnn(Cc2ccccc2Cn2nnc(C(=O)c3ccccc3)c2C(=O)c2ccccc2)c1C(=O)c1ccccc1` was tested. Which GI50 (DMS-114) did it give?
A: 81.1 µM (inactive)

Q: And the GI50 (HOP-18)?
A: > 100 µM (inactive)

Q: And the GI50 (SNB-78)?
A: > 100 µM (inactive)

Q: What about the GI50 (KM-20L2) of the same compound?
A: > 100 µM (inactive)

Q: And the GI50 (DMS-273)?
A: > 100 µM (inactive)

Q: And the GI50 (LXFL 529)?
A: > 100 µM (inactive)

Q: With `OC[C@]1(n2nc3ccccc3n2)OC[C@@H]1c1ccccc1` as the compound, how does the GI50 (MDA-N) read?
A: 53.7 µM (inactive)

Q: With `Cc1nc(Nc2ccc(Cl)cc2)sc1C(=O)NNC(=O)C(=O)NN` as the compound, how does the GI50 (DMS-114) read?
A: 20.4 µM (inactive)

Q: And the GI50 (HOP-18)?
A: 16.2 µM (inactive)

Q: What about the GI50 (SNB-78) of the same compound?
A: 26.9 µM (inactive)

Q: What about the GI50 (KM-20L2) of the same compound?
A: 16.3 µM (inactive)

Q: What about the GI50 (DMS-273) of the same compound?
A: 19.1 µM (inactive)

Q: What about the GI50 (LXFL 529) of the same compound?
A: 18.3 µM (inactive)

Q: `O=C(O)c1ccc(C(O)(c2ccccc2)c2ccccc2)cc1` was tested. Which GI50 (MDA-N) did it give?
A: > 100 µM (inactive)

Q: Which GI50 (MDA-N) does the source give for `Cc1ncc(CO)c(CN)c1O` here?
A: > 100 µM (inactive)

Q: `Cc1ccc2c(c1)CC1(Cc3cccc(C)c3C1=O)C2=O` (stereo not given) was tested. Which GI50 (MDA-N) did it give?
A: > 10 µM (inactive)

Q: For `C/C(=N/NC(=S)N1CCCCCC1)c1cccc(/C(C)=N\NC(=S)N2CCCCCC2)n1`, which GI50 (MDA-N) is on record?
A: 2.23 µM (inactive)

Q: With `COC(=O)C12OC3CO[Si](C(C)C)(C(C)C)O[Si](C(C)C)(C(C)C)OC3C1Oc1nc(=O)ccn12` (stereo not given) as the compound, how does the GI50 (MDA-N) read?
A: 18 µM (inactive)

Q: For `COc1nc(=O)n(C2CC(N=[N+]=[N-])C(CO)O2)cc1C` (stereo not given), which GI50 (MDA-N) is on record?
A: > 100 µM (inactive)

Q: `O=c1c2ncn(C3CCCCO3)c2n(-c2ccccc2)c(=S)n1-c1ccccc1` (stereo not given) was tested. Which GI50 (MDA-N) did it give?
A: > 66.1 µM (inactive)

Q: How did the GI50 (MDA-N) turn out when `O=C1c2cccc3cccc(c23)C2NCCCN12` (stereo not given) was run?
A: > 100 µM (inactive)
